Laboratory results reported in patent publication US20180125993A1 (BEIJING COTIMES BIOTECH COMPANY LIMITED, priority 2014, published 2018).
Marks after values point to notes of the source that are not given here.

Legend:
[1] = target: T1, OPG-His (recombinant human osteroprotegerin/TNFRSF11B) (Homo sapiens, UniProt O00300); assay: Binding specificity by chemiluminescent enzyme immunoassay (CLEIA); details: antibody 200, 40 and 8 ng/mL; 1 hour, 37° C.
T1 construct: His; purchased Wuxi Pharmatech Co. Ltd
T1 sequence (O00300 22-401): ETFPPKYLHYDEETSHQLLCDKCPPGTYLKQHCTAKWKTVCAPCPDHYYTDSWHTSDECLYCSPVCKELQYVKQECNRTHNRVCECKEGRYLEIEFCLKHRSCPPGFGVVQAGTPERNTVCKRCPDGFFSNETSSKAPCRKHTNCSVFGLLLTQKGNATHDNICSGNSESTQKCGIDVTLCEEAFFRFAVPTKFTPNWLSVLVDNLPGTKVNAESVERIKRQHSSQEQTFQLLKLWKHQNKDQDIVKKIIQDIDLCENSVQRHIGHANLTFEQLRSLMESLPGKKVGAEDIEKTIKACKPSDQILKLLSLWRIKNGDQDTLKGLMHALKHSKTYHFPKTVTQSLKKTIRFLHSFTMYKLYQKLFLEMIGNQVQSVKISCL
Procedure: (§1) The binding specificity of HuCTB006 was evaluated by chemiluminescent enzyme immunoassay (CLEIA).
(§2) HuCTB006 was diluted into 200, 40 and 8 ng/mL and then added to the wells. After 1 hour incubation in 37° C., the plate was washed. The binding of HuCTB006 with immobilized antigens was detected with HRP labeled secondary antibody and a substrate solution.

[2] = target: T2, DcR2-His (recombinant human TRAIL R4/TNFRSF10D) (Homo sapiens, UniProt Q9UBN6); assay: as above; details: antibody 200, 40 and 8 ng/mL; 1 hour, 37° C.
T2 construct: His; purchased Sino Biological
T2 sequence (Q9UBN6 56-386): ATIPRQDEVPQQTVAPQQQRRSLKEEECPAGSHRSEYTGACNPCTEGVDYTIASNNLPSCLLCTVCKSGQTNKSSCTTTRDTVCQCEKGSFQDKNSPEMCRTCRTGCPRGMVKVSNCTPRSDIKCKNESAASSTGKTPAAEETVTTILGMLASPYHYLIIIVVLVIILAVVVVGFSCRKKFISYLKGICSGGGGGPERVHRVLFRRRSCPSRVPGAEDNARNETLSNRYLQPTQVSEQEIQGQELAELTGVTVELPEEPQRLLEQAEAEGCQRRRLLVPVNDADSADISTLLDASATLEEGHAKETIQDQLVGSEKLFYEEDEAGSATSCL
Procedure: as §1, §2

ZR-75-30 = assay: In vitro cytotoxic sensitivity of CTB006; assay type: cell-based, human; details: ZR-75-30, Breast cancer
A549 = assay: In vitro cytotoxic sensitivity of CTB006; assay type: cell-based, human; details: A549, Lung cancer
Colo205 = assay: Human colon cancer Colo205 subcutaneous model (Day 28 after treatment); assay type: in vivo, nude mice; details: for TGI calculated using the tumor volume / TGI calculated using the tumor weights: repeated experiment
Procedure: Tumor cells (i.e., MIA-PaCa-2, WiDr, H2122, colo205) were inoculated in nude mice's flank at 5×10^6 cells per mouse. The mice were grouped when the average volume of tumors reached about 100˜200 mm^3. “QW”=weekly dose. “Q3d”=dosed every third day. “BiW”=biweekly.
The bodyweight and major/minor axis of the mice were measured twice a week, and the tumor volumes were calculated using the formula: Tumor volume=1/2×major axis[…]. […] “T” represents average tumor volume of the experimental group (cm^3), and “C” represents average tumor volume of the control group (cm^3). The animals were monitored at all times. The bodyweight and major/minor axis or mice were measured twice a week.
Tumor volumes were represented with average±standard error. […] P<0.05 represents significant difference.

BT-20 = assay: In vitro cytotoxic sensitivity of CTB006; assay type: cell-based, human; details: BT-20, Breast cancer
ASPC-1 = assay: In vitro cytotoxic sensitivity of CTB006; assay type: cell-based, human; details: ASPC-1, Pancreatic cancer
H2122 = assay: Human lung cancer H2122 subcutaneous model (Day 38 after treatment); details: for Tumor regression: treatment groups
Procedure: The bodyweight and major/minor axis of the mice were measured twice a week, and the tumor volumes were calculated using the formula: Tumor volume=1/2×major axis×minor axis. […] “T” represents average tumor volume of the experimental group (cm^3), and “C” represents average tumor volume of the control group (cm^3). The animals were monitored at all times. The bodyweight and major/minor axis or mice were measured twice a week. When the experiments were concluded, mice were sacrificed and tumors were extracted and weighted.
Tumor volumes were represented with average±standard error. Data analysis was done using Spss16.0, One-Way ANOVA, LSD (homogeneity of variance) or Dunnett T3 (non-homogeneity of variance). […] P<0.05 represents significant difference.

MDA-MB-468 = assay: In vitro cytotoxic sensitivity of CTB006; assay type: cell-based, human; details: MDA-MB-468, Breast cancer
[3] = HuCTB006 0.2 mg/kg i.v. QW × 4W
[4] = HuCTB006 0.2 mg/kg i.v. QW × 4W, 0.2 mg/kg
[5] = HuCTB006 0.6 mg/kg i.v. QW × 4W
[6] = HuCTB006 1.8 mg/kg i.v. QW × 4W
[7] = HuCTB006 5.4 mg/kg i.v. QW × 4W
[8] = HuCTB006 0.2 mg/kg i.v. QW × 6W
[9] = HuCTB006 0.2 mg/kg i.v. QW × 6W, 0.2 mg/kg
[10] = HuCTB006 0.2 mg/kg i.v. QW × 6W, listed as HUCTB006, 0.2 mg/kg
[11] = HuCTB006 0.6 mg/kg i.v. QW × 6W
[12] = HuCTB006 0.6 mg/kg i.v. QW × 6W, 0.6 mg/kg
[13] = HuCTB006 0.6 mg/kg i.v. QW × 6W, listed as HUCTB006, 0.6 mg/kg
[14] = HuCTB006 1.8 mg/kg i.v. QW × 6W
[15] = HuCTB006 1.8 mg/kg i.v. QW × 6W, 1.8 mg/kg
[16] = HuCTB006 1.8 mg/kg i.v. QW × 6W, listed as HUCTB006, 1.8 mg/kg
[17] = HuCTB006 5.4 mg/kg i.v. QW × 6W
[18] = HuCTB006 5.4 mg/kg i.v. QW × 6W, 5.4 mg/kg
[19] = HuCTB006 5.4 mg/kg i.v. QW × 6W, listed as HUCTB006, 5.4 mg/kg
[20] = repeated experiment, HuCTB006 0.2 mg/kg
[21] = repeated experiment, HuCTB006 0.6 mg/kg
[22] = repeated experiment, HuCTB006 1.8 mg/kg
[23] = repeated experiment, HuCTB006 5.4 mg/kg

cross-reaction with coated antigen [1]: no cross-reaction
cross-reaction with coated antigen [2]: no cross-reaction
Substance: HuCTB006: Monospecific humanized chimeric monoclonal antibody directed to TRAIL-R2 receptor; heavy chain SEQ ID NO: 14, light chain SEQ ID NO: 12
In vitro cytotoxic sensitivity of CTB006 (ZR-75-30): Non-responder
In vitro cytotoxic sensitivity of CTB006 (A549): Non-responder
T/C % (Calculated using tumor volume) (Colo205; [3]): 66.90%
Time of tumor volume changed significantly (Colo205; [3]): 10 Days after first treatment
Tumor Volume Mean ± SEM (Colo205; [3]): 1.24 ± 0.20 cm^3
Tumor weight Mean ± SEM (Colo205; [3]): 0.84 ± 0.14 g
TGI (Calculated using tumor volume) (Colo205; [4]): 35.62%
TGI (Calculated using tumor weight) (Colo205; [4]): 33.30%
T/C % (Calculated using tumor volume) (Colo205; [5]): 14.41%
Tumor Volume Mean ± SEM (Colo205; [5]): 0.29 ± 0.13 cm^3
Tumor weight Mean ± SEM (Colo205; [5]): 0.20 ± 0.10 g
T/C % (Calculated using tumor volume) (Colo205; [6]): 19.91%
Tumor Volume Mean ± SEM (Colo205; [6]): 0.38 ± 0.16 cm^3
Tumor weight Mean ± SEM (Colo205; [6]): 0.23 ± 0.12 g
T/C % (Calculated using tumor volume) (Colo205; [7]): 14.80%
Time of tumor volume changed significantly (Colo205; [7]): 7~10^2 Days after first treatment
Tumor Volume Mean ± SEM (Colo205; [7]): 0.28 ± 0.10 cm^3
Tumor weight Mean ± SEM (Colo205; [7]): 0.15 ± 0.07 g
Bodyweights (Colo205; all HuCTB006 treatment groups): did not show any notably changes
Tumor regression (Colo205; first experiment, treatment groups): four animals of HuCTB006 treatment groups showed tumor regression
TGI calculated using the tumor volume (Colo205; HuCTB006 0.2 mg/kg): 56.16%
TGI calculated using the tumor weights (Colo205; HuCTB006 0.2 mg/kg): 58.68%
TGI calculated using the tumor volume (Colo205; HuCTB006 0.6 mg/kg): 79.75%
TGI calculated using the tumor weights (Colo205; HuCTB006 0.6 mg/kg): 82.34%
TGI calculated using the tumor volume (Colo205; HuCTB006 1.8 mg/kg): 93.65%
TGI calculated using the tumor weights (Colo205; HuCTB006 1.8 mg/kg): 94.33%
TGI calculated using the tumor volume (Colo205; HuCTB006 5.4 mg/kg): 87.12%
TGI calculated using the tumor weights (Colo205; HuCTB006 5.4 mg/kg): 89.90%
In vitro cytotoxic sensitivity of CTB006 (BT-20): Non-responder
In vitro cytotoxic sensitivity of CTB006 (ASPC-1): Non-responder
T/C % (Calculated using tumor volumes) (H2122; [8]): 92.13%
Time of tumor volume changed significantly (H2122; [8]): 8
Tumor Volume Mean ± SEM (H2122; [8]): 1.85 ± 0.15 cm^3
Tumor weight Mean ± SEM (H2122; [8]): 1.54 ± 0.09 g
TGI (Calculated using tumor volumes) (H2122; [9]): 11.56%
TGI (Calculated using tumor weight) (H2122; [9]): 6.45%
TGI (Calculated using tumor volumes) (H2122; [10]): 11.56%
TGI (Calculated using tumor weight) (H2122; [10]): 6.45%^5
T/C % (Calculated using tumor volumes) (H2122; [11]): 50.75%
Tumor Volume Mean ± SEM (H2122; [11]): 1.02 ± 0.31 cm^3
Tumor weight Mean ± SEM (H2122; [11]): 0.89 ± 0.29 g
TGI (Calculated using tumor volumes) (H2122; [12]): 51.06%
TGI (Calculated using tumor weight) (H2122; [12]): 45.66%
TGI (Calculated using tumor volumes) (H2122; [13]): 51.06%^3
TGI (Calculated using tumor weight) (H2122; [13]): 45.66%^4
T/C % (Calculated using tumor volumes) (H2122; [14]): 6.46%
Tumor Volume Mean ± SEM (H2122; [14]): 0.16 ± 0.16 cm^3
Tumor weight Mean ± SEM (H2122; [14]): 0.12 ± 0.12 g
TGI (Calculated using tumor volumes) (H2122; [15]): 92.08%
TGI (Calculated using tumor weight) (H2122; [15]): 92.48%
TGI (Calculated using tumor volumes) (H2122; [16]): 92.08%**^2
TGI (Calculated using tumor weight) (H2122; [16]): 92.48%*
T/C % (Calculated using tumor volumes) (H2122; [17]): 5.54%
Tumor Volume Mean ± SEM (H2122; [17]): 0.18 ± 0.18 cm^3
Tumor weight Mean ± SEM (H2122; [17]): 0.19 ± 0.18 g
TGI (Calculated using tumor volumes) (H2122; [18]): 91.23%
TGI (Calculated using tumor weight) (H2122; [18]): 8.62%
TGI (Calculated using tumor volumes) (H2122; [19]): 91.23%**
TGI (Calculated using tumor weight) (H2122; [19]): 88.62%*^1
Bodyweights (H2122; Taxol group, HuCTB006 0.2 mg/kg group): decreased, but were maintained at an acceptable level
Tumor regression (H2122; first experiment): some animals of HuCTB006 treatment groups showed tumor regression
Tumor regression (H2122; repeated experiment): some animals of CTB006 treatment groups showed tumor regression
TGI (Calculated using tumor volume) (H2122; [20]): 35.26%
TGI (Calculated using tumor weight) (H2122; [20]): 32.46%
TGI (Calculated using tumor volume) (H2122; [21]): 67.66%
TGI (Calculated using tumor weight) (H2122; [21]): 65.94%
TGI (Calculated using tumor volume) (H2122; [22]): 60.12%
TGI (Calculated using tumor weight) (H2122; [22]): 64.21%
TGI (Calculated using tumor volume) (H2122; [23]): 91.69%
TGI (Calculated using tumor weight) (H2122; [23]): 92.25%
In vitro cytotoxic sensitivity of CTB006 (MDA-MB-468): Non-responder
